From patent US10336765B2, “Dihydropyranopyrimidinone derivatives, and use thereof” (St Pharm Co., LTD, priority 2015, dated 2019)

molecular target: T1, tankyrase 1 (Homo sapiens, UniProt O95271); test: Analysis of activity of tankyrase 1 (Trevigen kit, ELISA absorbance at 450 nm); assay type: biochemical; settings: not given
T1 construct: purchased Trevigen 4700-096-K
T1 sequence (O95271 1-1327): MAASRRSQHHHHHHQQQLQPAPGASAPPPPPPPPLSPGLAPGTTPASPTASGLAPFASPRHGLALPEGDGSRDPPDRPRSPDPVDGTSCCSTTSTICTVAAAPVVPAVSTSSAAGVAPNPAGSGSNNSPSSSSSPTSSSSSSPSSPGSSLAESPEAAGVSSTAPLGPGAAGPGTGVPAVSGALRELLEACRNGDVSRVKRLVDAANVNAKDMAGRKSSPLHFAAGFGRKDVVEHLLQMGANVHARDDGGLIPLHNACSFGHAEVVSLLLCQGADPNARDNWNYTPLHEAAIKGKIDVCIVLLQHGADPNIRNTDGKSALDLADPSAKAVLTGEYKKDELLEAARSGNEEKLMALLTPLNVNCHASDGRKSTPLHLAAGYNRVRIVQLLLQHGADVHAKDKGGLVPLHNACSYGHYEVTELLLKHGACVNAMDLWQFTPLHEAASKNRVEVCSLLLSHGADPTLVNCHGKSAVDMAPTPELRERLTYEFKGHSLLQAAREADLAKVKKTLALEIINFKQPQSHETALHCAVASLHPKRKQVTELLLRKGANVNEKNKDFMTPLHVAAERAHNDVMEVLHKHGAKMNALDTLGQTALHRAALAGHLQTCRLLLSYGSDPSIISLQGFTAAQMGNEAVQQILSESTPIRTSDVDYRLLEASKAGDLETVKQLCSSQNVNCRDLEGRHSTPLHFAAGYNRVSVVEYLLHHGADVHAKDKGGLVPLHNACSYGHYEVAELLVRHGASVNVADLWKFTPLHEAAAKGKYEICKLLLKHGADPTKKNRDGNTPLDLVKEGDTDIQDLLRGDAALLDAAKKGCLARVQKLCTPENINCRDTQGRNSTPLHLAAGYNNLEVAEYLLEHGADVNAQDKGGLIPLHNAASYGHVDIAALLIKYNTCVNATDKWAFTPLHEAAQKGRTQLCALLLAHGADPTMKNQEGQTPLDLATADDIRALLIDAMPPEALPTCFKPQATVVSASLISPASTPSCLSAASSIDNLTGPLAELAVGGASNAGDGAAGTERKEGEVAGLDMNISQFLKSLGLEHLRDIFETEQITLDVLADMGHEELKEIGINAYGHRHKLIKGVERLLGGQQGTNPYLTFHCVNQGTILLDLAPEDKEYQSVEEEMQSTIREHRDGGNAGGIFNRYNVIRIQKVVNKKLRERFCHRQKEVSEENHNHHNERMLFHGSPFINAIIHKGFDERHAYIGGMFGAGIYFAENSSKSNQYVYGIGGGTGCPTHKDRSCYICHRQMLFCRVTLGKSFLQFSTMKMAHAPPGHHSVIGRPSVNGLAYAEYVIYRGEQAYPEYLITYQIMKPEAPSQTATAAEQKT
Experimental: Activities of novel compounds synthesized according to Examples 1 to 13 against tankyrase 1 were analyzed using a Trevigen kit (Cat. No. 4700-096-K). Poly PAR histone protein-coated 96-well plate, anti-PAR monoclonal antibody and goat anti-mouse IgG-HRP were used for measurement of absorbance by ELISA method. Specifically, 20×I-PAR assay buffer was diluted to 1× by adding water, and 50 μL of the diluted buffer was added to each well of the 96-well plate followed by reacting at rt for 30 min. Then, the supernatant was completely removed from each well and 10 μL of 1×I-PAR assay buffer and 15 μL of assay substrate were added to each well along with 1 μL of a 50× solution of inhibitors to be tested, which were the compounds obtained in the Examples 1 to 13. 10 mUnits/μL of tankyrase 1 enzyme was diluted 50-fold with 1×I-PAR assay buffer and 25 μL of the diluted enzyme was added to each well and reacted while stirring at rt for 30 min. One without any compound of the present invention was used as a positive control and another containing 1×I-PAR assay buffer with the same volume instead of tankyrase 1 enzyme was used as a negative control.
Upon completion of the reaction, 200 μL of PBSX, which was prepared by adding 0.1% triton X-100 to PBS, was added and removed and this washing process was repeated twice. Washing was repeated twice more using PBS in the same manner. 5× antibody diluent was diluted with distilled water to 1× concentration, 50 μL of the diluted goat anti-mouse IgG-HRP to 1/2000 was added to each well and reacted while stirring at rt for 30 min. Washes were carried out twice using PBSX and PBS, respectively. After adding 50 μL of TACS-sapphire to each well of the plate, the plate was blocked from light to react for 10 min to 15 min and the color of the reaction solution turned blue. To stop the reaction, 50 μL of 0.2N HCl was added to turn the solution yellow. Finally, the absorbance of the resulting solution was measured at 450 nm.

Row | IC50 [nM] | SMILES
1 | 27.2 | COCCOc1cc(F)c(N2CCN(c3nc4c(c(=O)[nH]3)COCC4)CC2)c(F)c1 [Example 1, 2-(4-(2,6-difluoro-4-(2-methoxyethoxy)phenyl)piperazin-1-yl)-7,8-dihydro-3H-pyrano[4,3-d]pyrimidin-4(5H)-one]

same assay, conditions: Trevigen kit Cat. No. 4700-096-K; reacted at rt for 30 min; absorbance at 450 nm; read-out: TNKS1 (IC50)

Row | SMILES | IC50 [nM]
2 | O=c1[nH]c(N2CCN(c3c(F)cc(OCCN4CCOCC4)cc3F)CC2)nc2c1COCC2 [Example 2, 2-(4-(2,6-difluoro-4-(2-morpholinoethoxy)phenyl)piperazin-1-yl)-7,8-dihydro-3H-pyrano[4,3-d]pyrimidin-4(5H)-one] | 40.6
3 | O=c1[nH]c(N2CCN(c3c(F)cc(OCCO)cc3F)CC2)nc2c1COCC2 [Example 4, 2-(4-(2,6-difluoro-4-(2-hydroxyethoxy)phenyl)piperazin-1-yl)-7,8-dihydro-3H-pyrano[4,3-d]pyrimidin-4(5H)-one] | 26.6
4 | O=c1[nH]c(N2CCN(c3c(F)cc(OCC(O)CO)cc3F)CC2)nc2c1COCC2 (stereo not shown) [Example 5, 2-(4-(4-(2,3-dihydroxypropoxy)-2,6-difluorophenyl)piperazin-1-yl)-7,8-dihydro-3H-pyrano[4,3-d]pyrimidin-4(5H)-one] | 26.1
5 | CC(O)c1cc(F)c(N2CCN(c3nc4c(c(=O)[nH]3)COCC4)CC2)c(F)c1 (stereo not shown) [Example 7, 2-(4-(2,6-difluoro-4-(1-hydroxyethyl)phenyl)piperazin-1-yl)-7,8-dihydro-3H-pyrano[4,3-d]pyrimidin-4(5H)-one] | 21.8
6 | COCCOc1cc(F)c(C2(O)CCN(c3nc4c(c(=O)[nH]3)COCC4)CC2)c(F)c1 [Example 8, 2-(4-(2,6-difluoro-4-(2-methoxyethoxy)phenyl)-4-hydroxypiperidin-1-yl)-7,8-dihydro-3H-pyrano[4,3-d]pyrimidin-4(5H)-one] | 162
7 | CCN(CC)CCOc1cc(F)c(N2CCN(c3nc4c(c(=O)[nH]3)COCC4)CC2)c(F)c1 [Example 12, 2-(4-(4-(2-(diethylamino)ethoxy)-2,6-difluorophenyl)piperazin-1-yl)-7,8-dihydro-3H-pyrano[4,3-d]pyrimidin-4(5H)-one] | 33.6
8 | O=c1[nH]c(N2CCN(c3c(F)cc(OCCn4ccnc4)cc3F)CC2)nc2c1COCC2 [Example 13, 2-(4-(4-(2-(1H-imidazol-1-yl)ethoxy)-2,6-difluorophenyl)piperazin-1-yl)-7,8-dihydro-3H-pyrano[4,3-d]pyrimidin-4(5H)-one] | 25.4

Next, values leading:

Row | IC50 [nM] | SMILES
9 | 40.3 | O=c1[nH]c(N2CCN(c3c(F)cc(OCCN4CCCCC4)cc3F)CC2)nc2c1COCC2 [Example 3, 2-(4-(2,6-difluoro-4-(2-(piperidin-1-yl)ethoxy)phenyl)piperazin-1-yl)-7,8-dihydro-3H-pyrano[4,3-d]pyrimidin-4(5H)-one]
10 | 36.8 | CN1CCN(Cc2cc(F)c(N3CCN(c4nc5c(c(=O)[nH]4)COCC5)CC3)c(F)c2)CC1 [Example 6, 2-(4-(2,6-difluoro-4-((4-methylpiperazin-1-yl)methyl)phenyl)piperazin-1-yl)-7,8-dihydro-3H-pyrano[4,3-d]pyrimidin-4(5H)-one]
11 | 803 | Cn1nnc(C2CCN(c3nc4c(c(=O)[nH]3)COCC4)CC2)n1 [Example 9, 2-(4-(2-methyl-2H-tetrazol-5-yl)piperidin-1-yl)-7,8-dihydro-3H-pyrano[4,3-d]pyrimidin-4(5H)-one]
12 | 34.2 | O=C(COc1cc(F)c(N2CCN(c3nc4c(c(=O)[nH]3)COCC4)CC2)c(F)c1)N1CCCCC1 [Example 10, 2-(4-(2,6-difluoro-4-(2-oxo-2-(piperidin-1-yl)ethoxy)phenyl)piperazin-1-yl)-7,8-dihydro-3H-pyrano[4,3-d]pyrimidin-4(5H)-one]
13 | 74.4 | COCCOc1cc(F)c(C2CCN(c3nc4c(c(=O)[nH]3)COCC4)CC2)c(F)c1 [Example 11, 2-(4-(2,6-difluoro-4-(2-methoxyethoxy)phenyl)piperidin-1-yl)-7,8-dihydro-3H-pyrano[4,3-d]pyrimidin-4(5H)-one]
